Test: Storage stability at room temperature
Assay type: physicochemical
Settings: stability to air and water-deliquescence

SMILES: O=C(O)CN(CCN1CC(=O)OC(=O)C1)CCN1CC(=O)OC(=O)C1 [DTPA anhydride]
- storage time in room temperature: much unstable and easy to water-deliquescent

Source: patent EP2067489B1, “Glyco-molecular imaging method for grade classification of liver fibrosis and its glyco-molecular imaging agent thereof” (Institute of Nuclear Energy Research Atomic Energy Council, priority 2007, dated 2009)
